# Data taken from ChEMBL document CHEMBL3585345 (ACS Med Chem Lett, 2015).
# Active and inactive are the calls of the source. The calls are words filed in the database; no cut-off is given here.
# Key:
# in vivo = conditions: nude, mouse, brain/plasma, po, 30 mg/kg
# [1] = AUC (0 to 8 hrs) in nude mouse brain at 30 mg/kg, po; assay type: ADME, organism-based; parameters: dose 30 mg/kg, time < 8 hr, route oral
# [2] = Cmax in nude mouse brain at 30 mg/kg, po; assay type: ADME, organism-based; parameters: dose 30 mg/kg, route oral
# Caco-2 [3] = assay: Permeability across apical to basolateral side in human Caco2 cells; assay type: ADME, cell-based
# [4] = Aqueous solubility of the compound; assay type: physicochemical; conditions: buffer
# Caco-2 [5] = assay: Permeability across basolateral to apical side in human Caco2 cells; assay type: ADME, cell-based
# Calu-6 [6] = assay: Antitumor activity against human Calu6 cells xenografted in mouse assessed as tumor growth inhibition at 20 mg/kg, po bid administered for 21 days; assay type: functional, organism-based
# Aurora kinase A [7] = molecular target: T1, Aurora kinase A (Mus musculus, UniProt P97477); assay: Inhibition of recombinant mouse aurora kinase A expressed in insect Sf9 cells using biotin-GLRRASLG as substrate in presence of [gamma-33P]ATP
# T1 sequence (P97477 whole entry): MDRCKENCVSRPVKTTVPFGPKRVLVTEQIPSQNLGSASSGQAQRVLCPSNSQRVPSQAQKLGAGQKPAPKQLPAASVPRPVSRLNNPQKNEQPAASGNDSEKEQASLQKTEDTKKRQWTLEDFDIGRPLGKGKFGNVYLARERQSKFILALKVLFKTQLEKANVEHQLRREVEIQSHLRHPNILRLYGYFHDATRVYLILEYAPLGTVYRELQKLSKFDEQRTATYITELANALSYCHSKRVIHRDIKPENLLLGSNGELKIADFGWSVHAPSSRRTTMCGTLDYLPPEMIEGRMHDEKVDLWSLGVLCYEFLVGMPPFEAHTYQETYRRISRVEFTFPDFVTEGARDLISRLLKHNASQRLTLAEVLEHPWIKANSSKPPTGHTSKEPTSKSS
# HCT-116 = assay: Cytotoxicity against human HCT116 cells assessed as inhibition of cell proliferation by BrdU incorporation assay; assay type: functional
# Aurora kinase B = Aurora kinase B (Homo sapiens, UniProt Q96GD4); assay: Inhibition of aurora kinase B in human HCT116 cells assessed as inhibition of histone H3 phosphorylation by immunofluorescence analysis; assay type: cell-based, HCT-116
# Rattus norvegicus [8] = assay: Toxicity in Sprague-Dawley rat assessed as mucositis at maximum tolerated dose, po administered for 7 days; assay type: organism-based; conditions: in vivo, 168 h
# Rattus norvegicus [9] = assay: (§1) Oral bioavailability in Sprague-Dawley rat at 10 mg/kg; assay type: ADME, organism-based; conditions: in vivo
# [10] = Terminal half life in Sprague-Dawley rat at 1 mg/kg, iv; assay type: ADME, organism-based; conditions: in vivo, read-out: beta t1/2 (converted)
# [11] = Protein binding in plasma (unknown origin); assay type: ADME, cell-free; conditions: read-out: PPB
# [12] = Volume of distribution at steady state in Sprague-Dawley rat at 1 mg/kg, iv; assay type: ADME, organism-based; conditions: in vivo, read-out: Vdss
# [13] = molecular target: T2, Gamma-aminobutyric acid receptor subunit alpha-1 (Homo sapiens, UniProt P14867); assay: Binding affinity to GABAA alpha-1 benzodiazepine binding site (unknown origin)
# T2 sequence (P14867 whole entry): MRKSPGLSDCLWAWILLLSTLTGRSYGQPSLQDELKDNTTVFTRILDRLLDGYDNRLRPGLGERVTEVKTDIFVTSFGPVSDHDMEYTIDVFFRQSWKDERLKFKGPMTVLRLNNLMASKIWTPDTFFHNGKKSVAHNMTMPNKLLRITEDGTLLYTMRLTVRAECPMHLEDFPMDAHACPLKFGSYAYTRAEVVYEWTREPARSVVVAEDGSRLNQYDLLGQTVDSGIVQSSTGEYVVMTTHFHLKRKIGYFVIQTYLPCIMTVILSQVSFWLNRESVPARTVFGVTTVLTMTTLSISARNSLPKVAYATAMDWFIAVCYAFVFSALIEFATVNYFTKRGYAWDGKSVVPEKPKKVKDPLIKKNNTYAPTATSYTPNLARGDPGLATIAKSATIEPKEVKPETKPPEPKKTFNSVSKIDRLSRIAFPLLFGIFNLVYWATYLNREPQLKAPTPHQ
# Rattus norvegicus [14] = assay: Toxicity in Sprague-Dawley rat assessed as GABAA related effect at maximum tolerated dose, po administered for 7 days; assay type: organism-based; conditions: in vivo, 168 h
# [15] = Cmax in po dosed Sprague-Dawley rat; assay type: ADME, organism-based; parameters: route oral; conditions: in vivo
# Rattus norvegicus [16] = assay: AUC (0 to 24 hrs) in po dosed Sprague-Dawley rat; assay type: ADME, organism-based; parameters: time < 24 hr, route oral; conditions: in vivo
# [17] = Inhibition of human CYP450; assay type: ADME
# Rattus norvegicus [18] = assay: In vivo binding affinity to GABAA receptor in po dosed Sprague-Dawley rat; assay type: ADME, organism-based
# Rattus norvegicus [19] = assay: Toxicity in Sprague-Dawley rat assessed as myelosuppression at maximum tolerated dose, po administered for 7 days; assay type: organism-based; conditions: in vivo, 168 h
# [20] = Substrate activity at P-gp (unknown origin) transfected in MDCK cells; assay type: ADME, cell-based; conditions: human
# Rattus norvegicus [21] = assay: Toxicity in Sprague-Dawley rat assessed as GABAA related effect administered as iv infusion measured within 5 mins; assay type: organism-based; conditions: in vivo
# Aurora kinase A [22] = molecular target: T1, Aurora kinase A; assay: Competitive inhibition of recombinant mouse aurora kinase A expressed in insect Sf9 cells in presence of ATP
# [23] = as §1; assay type: ADME, organism-based; conditions: Sprague-Dawley, in vivo
# Rattus norvegicus [24] = assay: Toxicity in Sprague-Dawley rat assessed as reversible effect on central nervous system at maximum tolerated dose, po administered for 7 days; assay type: organism-based; conditions: in vivo, 168 h
# [25] = Inhibition of CYP450 (unknown origin) up to 100 uM; assay type: ADME; conditions: human
# [26] = Clearance in Sprague-Dawley rat at 1 mg/kg, iv; assay type: ADME, organism-based; conditions: in vivo
# Plasma = assay: AUC (0 to 8 hrs) in nude mouse plasma at 30 mg/kg, po; assay type: ADME, organism-based; parameters: dose 30 mg/kg, time < 8 hr, route oral; conditions: in vivo
# Aurora kinase A [27] = molecular target: T3, Aurora kinase A (Homo sapiens, UniProt O14965); assay: Inhibition of aurora kinase A autophosphorylation at T288 in human HCT116 cells by immunofluorescence analysis; assay type: cell-based, HCT-116
# T3 sequence (O14965 whole entry): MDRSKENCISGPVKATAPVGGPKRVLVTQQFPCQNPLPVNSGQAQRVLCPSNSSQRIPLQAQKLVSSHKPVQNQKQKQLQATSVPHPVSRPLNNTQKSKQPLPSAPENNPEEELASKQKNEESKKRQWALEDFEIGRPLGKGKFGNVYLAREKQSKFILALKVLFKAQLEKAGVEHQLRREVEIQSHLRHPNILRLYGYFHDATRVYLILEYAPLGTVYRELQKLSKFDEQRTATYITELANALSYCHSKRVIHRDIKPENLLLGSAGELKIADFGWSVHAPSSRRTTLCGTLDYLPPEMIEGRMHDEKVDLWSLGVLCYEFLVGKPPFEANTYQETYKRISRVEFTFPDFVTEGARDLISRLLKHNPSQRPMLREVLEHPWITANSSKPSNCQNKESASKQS
# Calu-6 [28] = assay: Antitumor activity against human Calu6 cells xenografted in mouse assessed as tumor growth inhibition at 30 mg/kg, po bid administered for 21 days; assay type: functional, organism-based
# Aurora kinase B, sequence (Q96GD4 whole entry): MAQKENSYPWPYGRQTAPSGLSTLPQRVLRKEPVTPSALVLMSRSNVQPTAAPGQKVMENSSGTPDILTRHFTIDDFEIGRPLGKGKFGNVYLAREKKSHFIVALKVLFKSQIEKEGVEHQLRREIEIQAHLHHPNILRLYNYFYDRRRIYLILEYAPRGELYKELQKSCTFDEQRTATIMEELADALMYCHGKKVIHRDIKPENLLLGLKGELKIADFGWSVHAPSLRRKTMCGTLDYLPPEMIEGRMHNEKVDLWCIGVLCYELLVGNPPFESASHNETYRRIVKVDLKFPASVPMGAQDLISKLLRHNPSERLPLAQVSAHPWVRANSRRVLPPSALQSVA
compound,measurement,setting,value
COc1cc(Nc2ncc3c(n2)-c2ccc(Cl)cc2C(c2c(F)cccc2OC)=NC3)ccc1C(=O)[O-].[Na+],Kp,in vivo,0.03
same,AUC(0-t) at 8 h,[1],2000 ng·h/mL
same,Cmax,[2],420 ng/mL
O=C([O-])c1ccc(Nc2ncc3c(n2)-c2ccc(Cl)cc2C(c2c(F)cccc2F)=NC3)cc1.[Na+],AUC(0-t) at 8 h,[1],12500 ng·h/mL
same,Cmax,[2],2600 ng/mL
O=C([O-])c1ccc(Nc2ncc3c(n2)-c2ccc(Cl)cc2C(c2ccccc2F)=NC3)cc1.[Na+],permeability,Caco-2 [3],58 ×10⁻⁶ cm/s
same,solubility,[4],> 10000 µg/mL
same,permeability,Caco-2 [5],64 ×10⁻⁶ cm/s
COc1cc(Nc2ncc3c(n2)-c2ccc(Cl)cc2C(c2c(F)cccc2OC)=NC3)ccc1C(=O)O,TGI,Calu-6 [6],Active
O=C(O)c1ccc(Nc2ncc3c(n2)-c2ccc(Cl)cc2C(c2ccccc2F)=NC3)cc1,IC50,Aurora kinase A [7],33 nM
same,GI50,HCT-116,950 nM
same,IC50,Aurora kinase B,> 10000 nM
COc1cc(Nc2ncc3c(n2)-c2ccc(Cl)cc2C(c2c(F)cccc2OC)=NC3)ccc1C(=O)O [ALISERTIB],Activity,Rattus norvegicus [8],Toxic
same,F,Rattus norvegicus [9],124%
same,half-life,[10],7 h
same,fraction unbound,[11],< 0.03
same,permeability,Caco-2 [3],62 ×10⁻⁶ cm/s
same,Vd,[12],2.21 L/kg
same,IC50,[13],490 nM
same,Activity,Rattus norvegicus [14],Non-toxic
same,IC50,Aurora kinase A [7],1 nM
same,Cmax,[15],48000 ng/mL
same,AUC,Rattus norvegicus [16],201000 ng·h/mL
same,IC50,[17],> 100000 nM
same,Activity,Rattus norvegicus [18],Non-toxic
same,Activity,Rattus norvegicus [19],Toxic
same,Activity,[20],Not Active
same,permeability,Caco-2 [5],47 ×10⁻⁶ cm/s
same,GI50,HCT-116,30 nM
same,Activity,Rattus norvegicus [21],Toxic
same,Ki,Aurora kinase A [22],0.3 nM
O=C(O)c1ccc(Nc2ncc3c(n2)-c2ccc(Cl)cc2C(c2c(F)cccc2F)=NC3)cc1 [MLN-8054],Activity,Rattus norvegicus [8],Toxic
same,bioavailability,[23],100%
same,half-life,[10],4.2 h
same,fraction unbound,[11],< 0.02
same,Activity,Rattus norvegicus [24],Toxic
same,permeability,Caco-2 [3],54 ×10⁻⁶ cm/s
same,inhibition (INH),[25],Not Active
same,Vd,[12],1.48 L/kg
same,IC50,[13],330 nM
same,IC50,Aurora kinase A [7],31 nM
same,Cmax,[15],5200 ng/mL
same,AUC,Rattus norvegicus [16],13800 ng·h/mL
same,Activity,Rattus norvegicus [19],Toxic
same,Activity,[20],Not Active
same,permeability,Caco-2 [5],79 ×10⁻⁶ cm/s
same,clearance,[26],20.3 mL/min/kg
same,Ki,Aurora kinase A [22],7 nM
COc1cccc(F)c1C1=NCc2cnc(Nc3ccc(C(=O)[O-])cc3)nc2-c2ccc(Cl)cc21.[Na+],Kp,in vivo,0.06
same,AUC,Plasma,54300 ng·h/mL
same,AUC(0-t) at 8 h,[1],3500 ng·h/mL
same,Cmax,[2],930 ng/mL
Nc1ncc2c(n1)-c1ccc(Cl)cc1C(c1ccccc1F)=NC2,IC50,Aurora kinase A [27],6000 nM
same,IC50,Aurora kinase A [7],1700 nM
same,GI50,HCT-116,11000 nM
same,IC50,Aurora kinase B,> 10000 nM
O=C(O)c1ccc(Nc2ncc3c(n2)-c2ccc(Cl)cc2C(c2c(F)cccc2F)=NC3)cc1,TGI,Calu-6 [28],Active
COc1cccc(F)c1C1=NCc2cnc(Nc3ccc(C(=O)O)cc3)nc2-c2ccc(Cl)cc21,IC50,[13],150 nM
same,Activity,Rattus norvegicus [14],Non-toxic
same,IC50,Aurora kinase A [7],10 nM
same,Cmax,[15],46000 ng/mL
same,AUC,Rattus norvegicus [16],244000 ng·h/mL
same,Activity,Rattus norvegicus [18],Non-toxic
same,GI50,HCT-116,130 nM
same,IC50,Aurora kinase B,2500 nM
